In PubChem BioAssay (NCI):
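96-well plates; 48 h exposure; 5 concentrations. Endpoints by linear interpolation between flanking doses. Not reached: highest tested concentration assigned. TGI: concentration producing complete growth inhibition.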

Legend:
Experiment in all cases: NCI anticancer screen, dose series, 48 h
[1] = system: K-562 leukemia
[2] = system: CCRF-CEM leukemia
[3] = system: HL-60(TB) leukemia
[4] = system: UO-31 renal
[5] = system: SF-295 CNS
[6] = system: COLO 205 colon
[7] = system: SW-620 colon
[8] = system: HCT-15 colon
[9] = system: HT29 colon
[10] = system: NCI-H460 lung
[11] = system: UACC-62 melanoma
[12] = system: OVCAR-3 ovarian
[13] = system: NCI-H23 lung
[14] = system: RPMI-8226 leukemia
[15] = system: OVCAR-4 ovarian
[16] = system: U251 CNS
[17] = system: LOX IMVI melanoma
[18] = system: M14 melanoma
[19] = system: HCT-116 colon
[20] = system: SF-268 CNS
[21] = system: NCI/ADR-RES ovarian
[22] = system: TK-10 renal
[23] = system: OVCAR-8 ovarian
[24] = system: SK-OV-3 ovarian
[25] = system: SF-539 CNS
[26] = system: EKVX NSCLC
[27] = system: SR leukemia
[28] = system: SK-MEL-28 melanoma
[29] = system: HOP-92 NSCLC
[30] = system: NCI-H522 lung
[31] = system: SNB-75 CNS
[32] = system: PC-3 prostate
[33] = system: MDA-N
[34] = system: OVCAR-5 ovarian
[35] = system: HS 578T breast
[36] = system: A549 NSCLC
[37] = system: MALME-3M melanoma
[38] = system: DU-145 prostate
[39] = system: RXF 393 renal
[40] = system: MOLT-4 leukemia
[41] = system: HOP-62 NSCLC
[42] = system: SN12C renal
[43] = system: T-47D breast
[44] = system: MCF7 breast
[45] = system: KM12 colon
[46] = system: UACC-257 melanoma
[47] = system: MDA-MB-231 breast
[48] = system: A498 renal
[49] = system: IGROV1 ovarian
[50] = system: 786-0 renal
[51] = system: SNB-19 CNS
[52] = system: HCC-2998 colon
[53] = system: ACHN renal
[54] = system: SK-MEL-5 melanoma
[55] = system: MDA-MB-435
[56] = system: NCI-H226 lung
[57] = system: CAKI-1 renal

SMILES: COC(=O)Cc1cccc2c1CCC2=O
- TGI [1]: > 100 µM
- TGI [2]: > 100 µM
- TGI [3]: > 100 µM
- TGI [4]: > 100 µM
- TGI [5]: > 100 µM
- TGI [6]: > 100 µM
- TGI [7]: > 100 µM
- TGI [8]: > 100 µM
- TGI [9]: > 100 µM
- TGI [10]: > 100 µM
- TGI [11]: > 100 µM
- TGI [12]: > 100 µM
- TGI [13]: > 100 µM
- TGI [14]: > 100 µM
- TGI [15]: > 100 µM
- TGI [16]: > 100 µM
- TGI [17]: > 100 µM
- TGI [18]: > 100 µM
- TGI [19]: > 100 µM
- TGI [20]: > 100 µM
- TGI [21]: > 100 µM
- TGI [22]: > 100 µM
- TGI [23]: > 100 µM
- TGI [24]: > 100 µM
- TGI [25]: > 100 µM
- TGI [26]: > 100 µM
- TGI [27]: > 100 µM
- TGI [28]: > 100 µM
- TGI [29]: > 100 µM
- TGI [30]: > 100 µM
- TGI [31]: > 100 µM
- TGI [32]: > 100 µM
- TGI [33]: > 100 µM
- TGI [34]: > 100 µM
- TGI [35]: > 100 µM
- TGI [36]: > 100 µM
- TGI [37]: > 100 µM
- TGI [38]: > 100 µM
- TGI [39]: > 100 µM
- TGI [40]: > 100 µM
- TGI [41]: > 100 µM
- TGI [42]: > 100 µM
- TGI [43]: > 100 µM
- TGI [44]: > 100 µM
- TGI [45]: > 100 µM
- TGI [46]: > 100 µM
- TGI [47]: > 100 µM
- TGI [48]: > 100 µM
- TGI [49]: > 100 µM
- TGI [50]: > 100 µM
- TGI [51]: > 100 µM
- TGI [52]: > 100 µM
- TGI [53]: > 100 µM
- TGI [54]: > 100 µM
- TGI [55]: > 100 µM
- TGI [56]: > 100 µM

SMILES: O=C(CCC(C(=O)OCc1ccccc1)C(=O)OCc1ccccc1)Nc1ccc(OCc2ccccc2)cc1
- TGI [1]: > 100 µM
- TGI [2]: > 100 µM
- TGI [3]: > 100 µM
- TGI [4]: > 100 µM
- TGI [5]: > 100 µM
- TGI [6]: > 100 µM
- TGI [7]: > 100 µM
- TGI [8]: 79.4 µM
- TGI [9]: > 100 µM
- TGI [10]: > 100 µM
- TGI [57]: > 100 µM
- TGI [11]: > 100 µM
- TGI [12]: > 100 µM
- TGI [13]: > 100 µM
- TGI [15]: > 100 µM
- TGI [16]: > 100 µM
- TGI [17]: > 100 µM
- TGI [18]: > 100 µM
- TGI [19]: 27.3 µM
- TGI [20]: > 100 µM
- TGI [21]: > 100 µM
- TGI [22]: > 100 µM
- TGI [23]: 34 µM
- TGI [24]: > 100 µM
- TGI [25]: > 100 µM
- TGI [26]: > 100 µM
- TGI [27]: > 100 µM
- TGI [28]: > 100 µM
- TGI [29]: > 100 µM
- TGI [30]: > 100 µM
- TGI [31]: > 100 µM
- TGI [32]: 47.2 µM
- TGI [33]: > 100 µM
- TGI [34]: > 100 µM
- TGI [35]: > 100 µM
- TGI [36]: > 100 µM
- TGI [37]: > 100 µM
- TGI [38]: > 100 µM
- TGI [39]: > 100 µM
- TGI [40]: > 100 µM
- TGI [41]: > 100 µM
- TGI [42]: > 100 µM
- TGI [43]: > 100 µM
- TGI [44]: 32.8 µM
- TGI [45]: > 100 µM
- TGI [46]: > 100 µM
- TGI [47]: > 100 µM
- TGI [48]: > 100 µM
- TGI [49]: > 100 µM
- TGI [50]: 32.2 µM
- TGI [51]: > 100 µM
- TGI [52]: > 100 µM
- TGI [53]: > 100 µM
- TGI [55]: > 100 µM
- TGI [56]: > 100 µM

SMILES: Nc1c(Br)cc2c(c1Br)Cc1cc(Br)ccc1-2
- TGI [1]: > 100 µM
- TGI [2]: > 100 µM
- TGI [4]: > 100 µM
- TGI [5]: > 100 µM
- TGI [6]: > 100 µM
- TGI [7]: > 100 µM
- TGI [8]: > 100 µM
- TGI [9]: > 100 µM
- TGI [10]: > 100 µM
- TGI [12]: > 100 µM
- TGI [13]: > 100 µM
- TGI [15]: > 100 µM
- TGI [16]: > 100 µM
- TGI [17]: > 100 µM
- TGI [18]: > 100 µM
- TGI [19]: > 100 µM
- TGI [20]: > 100 µM
- TGI [21]: > 100 µM
- TGI [22]: > 100 µM
- TGI [23]: > 100 µM
- TGI [24]: > 100 µM
- TGI [27]: > 100 µM
- TGI [28]: > 100 µM
- TGI [29]: > 100 µM
- TGI [30]: > 100 µM
- TGI [31]: > 100 µM
- TGI [32]: > 100 µM
- TGI [33]: > 100 µM
- TGI [35]: > 100 µM
- TGI [36]: > 100 µM
- TGI [38]: > 100 µM
- TGI [39]: > 100 µM
- TGI [40]: > 100 µM
- TGI [42]: > 100 µM
- TGI [43]: > 100 µM
- TGI [44]: > 100 µM
- TGI [45]: > 100 µM
- TGI [46]: > 100 µM
- TGI [47]: > 100 µM
- TGI [48]: > 100 µM
- TGI [51]: > 100 µM
- TGI [52]: > 100 µM
- TGI [53]: > 100 µM
- TGI [54]: > 100 µM
- TGI [55]: > 100 µM
- TGI [56]: > 100 µM
